Test results as given in patent US10947188B2, “Small molecule ferroptosis inducers” (THE TRUSTEES OF COLUMBIA UNIVERSITY IN THE CITY OF NEW YORK, priority 2016, dated 2021).
≈ marks a conversion by molar mass, not a printed value.

Tested on: HT-1080 cells
Experiment: Lethality of commercially available CIL41/70 structural analogs
Format: cell-based
Settings: tested once in technical triplicates; for EC50: Homo sapiens
Protocol: 1,000 cells per 36 μl were seeded in each well in 384-well plates. Lethal compounds were dissolved, and a twofold, 12-point dilution series was prepared in DMSO. Compound solutions were further diluted with media at 1:25, and 4 μl per well of the diluted solutions was added to cell cultures immediately after cells were seeded. […] When other cell-death-modulating compounds (100 nM sodium selenite, 1 μM cerivastatin, 100 μg/mL mevalonic acid) were used in cotreatments, they were supplemented to cell culture for 24 h before lethal compounds were added to cell culture, after which cells were further incubated for 24 h at 37° C. under 5% CO2. On the day of the viability measurement, we added 10 μl per well of 50% Alamar Blue diluted in media (Life Technologies) and further incubated the cells at 37° C. for 6 h. Fluorescence intensity (excitation/emission: 530/590) was measured with a Victor 3 plate reader (PerkinElmer), and the normalized viability was calculated as VL=(IL−I0)/(IV−I0), where VL, I0, IV, and IL are the normalized viability and the raw fluorescence intensities from the wells containing media, cells treated with a vehicle (negative control), and cells with the lethal compound (L), respectively. When the effect of a chemical modulator (M) on L was calculated, we instead used the equation VL|M=(IM,L−I0)/(IM,V−I0), where VL|M, IM,L and IM,V are the normalized viability, and fluorescence intensity from cells treated with […], respectively. The viability was typically measured in biological triplicate unless otherwise specified. A representative dose-response curve, the mean and standard error of normalized viability from one replicate were plotted. HT-1080 viability after modulator treatments corresponding to FIG. 3C and FIGS. 5E-5F is available in FIGS. 19A-19C.
Their lethality was tested once in HT-1080 cells in technical triplicates.

Row | SMILES | EC50 [µg/mL] | EC50 of CIL41/70 and structural analogs (lethality)
1 | COc1ccc(C/C(N)=N/OC(C)=O)cc1OC [CB66] | > 20 | 
2 | COc1ccc(C/C(N)=N/OC(=O)Cc2ccc(Cl)cc2)cc1OC [CB8] | > 20 | 
3 | NC(/C=C/c1cc(C(F)(F)F)cc(C(F)(F)F)c1)=N\OC(=O)/C=C/c1ccccc1 [MB1] | > 20 | 
4 | COc1ccccc1C/C(N)=N/OC(=O)COc1ccc(Br)c(C)c1 [CB45] | > 20 | 
5 | Cc1cc(C)cc(C(=O)NCC(=O)O/N=C(\N)CC(=O)Nc2ccc(Cl)cc2)c1 [EN11] | > 20 | 
6 | N/C(Cc1ccc(Cl)cc1Cl)=N\OC(=O)C1CCCCC1 [AS1] | > 20 | 
7 | Cc1cccc(OCC(=O)O/N=C(\N)Cc2ccc(Cl)cc2Cl)c1C [CB120] | > 20 | 
8 | COc1ccccc1C/C(N)=N/OC(=O)COc1cccc2ccccc12 [CB13] | > 20 | 
9 | Cc1ccccc1OCC(=O)O/N=C(\N)Cc1ccc(Cl)cc1 [CB3] | > 20 | 
10 | COc1ccc(C[C@@H](N)NOC(=O)C(c2ccccc2)c2ccccc2)cc1OC [CB54] | > 20 | 
11 | Cc1ccc(OCC(=O)O/N=C(\N)Cc2ccc([N+](=O)[O-])cc2)cc1C [CB92] | > 20 | 
12 | N[C@H](Cc1ccc([N+](=O)[O-])cc1)NOC(=O)COc1ccc2ccccc2c1 [CB57] | > 20 | 
13 | Cc1cc(OCC(=O)O/N=C(\N)Cc2cccs2)ccc1Br [CB38] | > 20 | 
14 | COc1ccccc1CC(=O)O/N=C(\N)Cc1ccc([N+](=O)[O-])cc1 [CB99] | > 20 | 
15 | Cc1cccc(OCC(=O)O/N=C(\N)Cc2cccc3ccccc23)c1 [CB44] | > 20 | 
16 | Cc1cccc(NC(=O)C/C(N)=N/OC(=O)C2CCCN2C(=O)c2ccco2)c1C (stereo not shown) [EN10] | > 20 | 
17 | Cc1cc(Cl)ccc1OCC(=O)O/N=C(\N)Cc1ccc([N+](=O)[O-])cc1 [CB125] | > 20 | 
18 | Cc1cc(OCC(=O)O/N=C(\N)Cc2ccc([N+](=O)[O-])cc2)cc(C)c1Cl [CB50] | > 20 | 
19 | CC(=NOCC(=O)ON=C(N)COc1ccc(Cl)cc1Cl)c1ccc(Cl)cc1 [MB4] |  | MB4 (>20 ug/mL)
20 | Cc1ccccc1NC(=O)C/C(N)=N/OC(=O)C1CCCN1C(=O)c1ccco1 (stereo not shown) [EN5] | > 20 | 
21 | COc1ccccc1C/C(N)=N/OC(=O)Cc1ccc(Cl)cc1 [CB12] | > 20 | 
22 | COc1ccc(CC(=O)O/N=C(\N)Cc2ccc(OC)c(OC)c2)cc1 [CB124] | > 20 | 

Row | SMILES | EC50 [µg/mL] | EC50 of CIL41/70 and structural analogs (lethality)
23 | CC(C)(Oc1ccc(Cl)cc1)C(=O)O/N=C(\N)Cc1ccc([N+](=O)[O-])cc1 [CB117] | > 20 | 
24 | N/C(Cc1ccc(Cl)cc1Cl)=N\OC(=O)/C=C/c1ccccc1Cl [VM3] | 8.51 (≈ 22.2 µM) | 
25 | COc1ccccc1C/C(N)=N/OC(=O)COc1cccc(C)c1C [CB123] | > 20 | 
26 | CC(C)(C)C(=O)O/N=C(\N)COc1ccc(Cl)cc1Cl [MB11] | > 20 | 
27 | Cc1ccc(OCC(=O)ON[C@H](N)Cc2cccs2)cc1C [CB94] | > 20 | 
28 | Cc1nn(C/C(N)=N/OC(=O)C(C)C)c(C)c1[N+](=O)[O-] [ZE4] | > 20 | 
29 | CC(C)(C)c1ccc(C(=O)O/N=C(\N)Cc2cccs2)cc1 [B02] | 3.3 (≈ 10.4 µM) | 
30 | N/C(Cc1ccc(Cl)cc1)=N\OC(=O)Cc1ccc([N+](=O)[O-])cc1 [CB17] | > 20 | 
31 | CC(C)(Oc1ccc(Cl)cc1)C(=O)O/N=C(\N)Cc1cccc2ccccc12 [CB113] | > 20 | 
32 | N/C(Cc1ccc(Cl)cc1Cl)=N\OC(=O)CCCOc1ccccc1 [CB138] | > 20 | 
33 | Cc1cc(OCC(=O)O/N=C(\N)Cc2ccc([N+](=O)[O-])cc2)cc(C)c1Br [CB95] | > 20 | 
34 | Cc1cc(OCC(=O)O/N=C(\N)Cc2cccc3ccccc23)cc(C)c1Br [CB102] | > 20 | 
35 | CC(C)c1ccc(OCC(=O)O/N=C(\N)Cc2ccc([N+](=O)[O-])cc2)cc1 [CB93] | > 20 | 
36 | N/C(Cc1ccc(Cl)cc1Cl)=N\OC(=O)Cc1cccs1 [CB100] | > 20 | 
37 | N/C(Cc1cccs1)=N\OC(=O)COc1ccccc1Cl [CB68] | > 20 | 
38 | CC1=C(Br)C(C)N(C/C(N)=N/OC(=O)CC2CC3CCC2C3)N1 (stereo not shown) [ZE12] | > 20 | 
39 | COc1ccccc1C/C(N)=N/OC(=O)COc1ccc2ccccc2c1 [CB61] | > 20 | 
40 | COc1ccc(C/C(N)=N/OC(=O)Cc2ccccc2)cc1OC [CB65] | > 20 | 
41 | N/C(Cc1ccc([N+](=O)[O-])cc1)=N\OC(=O)CCc1ccccc1 [VM5] | > 20 | 
42 | Cc1cc(C(F)(F)F)nn1C/C(N)=N/OC(=O)CC1CC2CCC1C2 (stereo not shown) [ZE10] | > 20 | 
43 | N/C(=N\OC(=O)Cc1ccccc1F)C12CC3CC(CC(C3)C1)C2 [EN8] | > 20 | 
44 | N/C(Cc1ccc(Cl)cc1Cl)=N\OC(=O)CSc1ccccc1 [CB133] | > 20 | 

Row | SMILES | EC50 [µg/mL] | EC50 of CIL41/70 and structural analogs (lethality)
45 | CC(=O)O/N=C(/N)Cn1nc(C)c([N+](=O)[O-])c1C [CB146] | > 20 | 
46 | CC(=O)O/N=C(\N)Cc1ccc(-c2csnn2)cc1 [MB8] | > 20 | 
47 | N/C(Cc1cccc2ccccc12)=N\OC(=O)Cc1cccs1 [CB109] | > 20 | 
48 | Cc1nn(C/C(N)=N/OC(=O)CC23CC4CC(CC(C4)C2)C3)c(C)c1Br [ZE2] | 15.6 (≈ 36.9 µM) | 
49 | N/C(Cc1ccc(Cl)cc1)=N\OC(=O)CCc1ccccc1 [CB55] | > 20 | 
50 | Cc1ccccc1OCC(=O)O/N=C(\N)Cc1ccc(Cl)cc1Cl [CB28] | > 20 | 
51 | N/C(Cc1ccc([N+](=O)[O-])cc1)=N\OC(=O)COc1ccc(Br)cc1 [CB43] | > 20 | 
52 | N/C(Cc1ccc([N+](=O)[O-])cc1)=N\OC(=O)CSc1ccccc1 [CB141] | > 20 | 
53 | N/C(COc1ccccc1)=N\OC(=O)C1CCCN1C(=O)c1ccco1 (stereo not shown) [EN7] | > 20 | 
54 | CCC(=O)O/N=C(\N)COc1ccc(Cl)cc1Cl [MB12] | > 20 | 
55 | COc1ccc(C/C(N)=N/OC(=O)COc2ccc(Br)c(C)c2)cc1 [CB37] | > 20 | 
56 | COc1ccccc1C/C(N)=N/OC(=O)COc1ccc(Br)cc1 [CB41] | > 20 | 
57 | N/C(=N\OC(=O)C1CCCN1C(=O)c1cccs1)C(c1ccccc1)c1ccccc1 (stereo not shown) [EN6] | > 20 | 
58 | COc1ccccc1CC(=O)O/N=C(\N)Cc1cccc2ccccc12 [CB108] | > 20 | 
59 | CCc1ccc(OCC(=O)O/N=C(\N)Cc2ccc([N+](=O)[O-])cc2)cc1 [CB79] | > 20 | 
60 | N/C(Cc1ccc(Cl)cc1Cl)=N\OC(=O)Cc1ccc(Cl)cc1 [VM2] | > 20 | 
61 | N/C(Cc1ccc([N+](=O)[O-])cc1)=N\OC(=O)Cc1cccs1 [CB103] | > 20 | 
62 | Cc1cc(C(F)(F)F)nn1C/C(N)=N/OC(=O)C1CCCCC1 [ZE15] | > 20 | 
63 | CC(C)(Oc1ccc(Cl)cc1)C(=O)O/N=C(\N)Cc1ccc(Cl)c(Cl)c1 [CB116] | 5.49 (≈ 13.2 µM) | 
64 | N/C(Cc1cccc2ccccc12)=N\OC(=O)Cc1ccccc1[N+](=O)[O-] [CB114] | > 20 | 
65 | CC(C)(C)C(=O)O/N=C(\N)Cc1cccc2ccccc12 [MB13] | > 20 | 
66 | COc1ccc(C/C(N)=N/OC(=O)COc2ccccc2C)cc1 [CB31] | > 20 | 

Row | SMILES | EC50 [µg/mL] | EC50 of CIL41/70 and structural analogs (lethality)
67 | CC(=O)O/N=C(N)/C(=N/OC(C)=O)c1nc2ccccc2[nH]1 [CB19] | > 20 | 
68 | Cc1nn(C/C(N)=N/OC(=O)Cn2nc(C(F)(F)F)cc2C2CC2)c(C)c1[N+](=O)[O-] [ZE9] | > 20 | 
69 | CC(C)(C)C(=O)O/N=C(\N)Cc1ccc(-c2csnn2)cc1 [MB6] | 6.48 (≈ 20.4 µM) | 
70 | N/C(Cc1ccc([N+](=O)[O-])cc1)=N\OC(=O)CC(c1ccccc1)c1ccccc1 [CB115] | 2.42 (≈ 6 µM) | 
71 | Cc1ccccc1OCC(=O)O/N=C(\N)Cc1cccc2ccccc12 [CB46] | > 20 | 
72 | COc1ccc(CC(=O)O/N=C(/N)Cn2nc(C)c([N+](=O)[O-])c2C)cc1 [ZE5] | > 20 | 
73 | CCC(=O)O/N=C(\N)Cn1nc(C)c([N+](=O)[O-])c1C [CB148] | > 20 | 
74 | N/C(Cc1cccc2ccccc12)=N\OC(=O)COc1ccccc1 [CB27] | > 20 | 
75 | Cc1ccc(OCC(=O)O/N=C(\N)Cc2cccc3ccccc23)cc1C [CB89] | > 20 | 
76 | N[C@H](Cc1ccc(Cl)cc1)NOC(=O)/C=C/c1ccccc1 [CB18] | 10.2 (≈ 32.2 µM) | 
77 | Cc1cc(Br)ccc1OCC(=O)O/N=C(\N)Cc1ccc(Cl)cc1Cl [CB110] | > 20 | 
78 | N/C(Cc1ccc(Cl)cc1Cl)=N\OC(=O)COc1ccccc1 [CB32] | > 20 | 
79 | COc1ccccc1C/C(N)=N/OC(=O)COc1ccc(C)cc1C [CB15] | > 20 | 
80 | CC(Oc1ccc(Cl)cc1Cl)C(=O)O/N=C(\N)Cc1ccc([N+](=O)[O-])cc1 (stereo not shown) [CB82] | > 20 | 
81 | N/C(CC(=O)NC1CCCCC1)=N\OC(=O)C1CCCN1C(=O)c1cccs1 (stereo not shown) [EN9] | > 20 | 
82 | CC(C)c1ccc(OCC(=O)O/N=C(\N)Cc2cccc3ccccc23)cc1 [CB90] | > 20 | 
83 | COc1ccccc1C/C(N)=N/OC(=O)CC(c1ccccc1)c1ccccc1 [CB122] | 0.98 (≈ 2.52 µM) | 
84 | O=C(O/N=C1\CCCCCN1)C(Cl)Cl [EN3] | > 20 | 
85 | N/C(Cc1ccc([N+](=O)[O-])cc1)=N\OC(=O)COc1ccccc1Cl [CB67] | > 20 | 
